Results published in patent US20090144861A1, “Fungicides and Bioregulatory Mixtures” (BASF Aktiengesellschaft, priority 2005, published 2009).

How the values were obtained:
Puccinia recondita = assay: Curative activity against brown rust of wheat (Puccrt K1); format: in vivo, Puccinia recondita on wheat seedlings cultivar Kanzler; conditions: sprayed 1 day after inoculation, assessed after 7 days
Procedure: The active compounds were prepared separately or jointly as a stock solution with 25 mg of active compound which was made up to 10 ml using a mixture of acetone and/or DMSO and the emulsifier Uniperol® EL (wetting agent having emulsifying and dispersing action based on ethoxylated alkylphenols) in a volume ratio of solvent/emulsifier of 99 to 1. The mixture was then made up to 100 ml with water. This stock solution was diluted with the solvent/emulsifier/water mixture described to the concentration of active compounds stated below. […] The expected efficacies of mixtures of active compounds were determined using Colby's formula (Colby, S. R. “Calculating synergistic and antagonistic responses of herbicide combinations”, Weeds, 15, pp. 20-22, 1967) and compared with the observed efficacies. E=x+y−x×y/100 Use Example 1—Curative activity against brown rust of wheat caused by Puccinia recondita (Puccrt K1) Leaves of potted wheat seedlings of the cultivar “Kanzler” were inoculated with a spore suspension of brown rust (Puccinia recondita). The pots were then placed in a chamber with high atmospheric humidity (90 to 95%) at 20 to 22° C. for 24 hours. During this time, the spores germinated and the germ tubes penetrated into the leaf tissue. The next day, the infected plants were sprayed to run off point with the active compound solution described above at the active compound concentration stated below. […] The extent of the rust fungus development on the leaves was then determined. The visually determined values for the percentage of infected leaf area were initially converted into a mean value and then converted into efficacies in % of the untreated control. […] The expected efficacies for active compound combinations were determined using Colby's formula (Colby, S. R. “Calculating synergistic and antagonistic responses of herbicide Combinations”, Weeds, 15, pp. 20-22, 1967) and compared to the observed efficacies. […]

[1] = test system: Erysiphe [syn. Blumeria] graminis forma specialis. tritici; assay: Activity against mildew of wheat (Erysgt P1); format: in vivo, Erysiphe graminis f. sp. tritici on wheat seedlings; conditions: sprayed 24 hours before inoculation, assessed after 7 days
Procedure: The active compounds were prepared separately or jointly as a stock solution with 25 mg of active compound which was made up to 10 ml using a mixture of acetone and/or DMSO and the emulsifier Uniperol® EL (wetting agent having emulsifying and dispersing action based on ethoxylated alkylphenols) in a volume ratio of solvent/emulsifier of 99 to 1. The mixture was then made up to 100 ml with water. This stock solution was diluted with the solvent/emulsifier/water mixture described to the concentration of active compounds stated below.
The visually determined percentages of infected leaf areas or the measured elongation were converted into efficacies in % of the untreated control:
The efficacy (E) is calculated as follows using Abbot's formula: […]
The expected efficacies of mixtures of active compounds were determined using Colby's formula (Colby, S. R. “Calculating synergistic and antagonistic responses of herbicide combinations”, Weeds, 15, pp. 20-22, 1967) and compared with the observed efficacies.
Use Example 2—Activity against mildew of wheat caused by Erysiphe [syn. Blumeria] graminis forma specialis. tritici (Erysgt P1)
Leaves of potted wheat seedlings were sprayed to run off point with an aqueous suspension having the active compound concentrations stated below. The suspension or emulsion had been prepared as described above. 24 hours after the spray coating had dried on, the plants were dusted with spores of mildew of wheat (Erysiphe [syn. Blumeria] graminis forma specialis. tritici). The test plants were then placed in a greenhouse at temperatures between 20 and 24° C. and at 60 to 90% relative atmospheric humidity. After 7 days, the extent of the mildew development was determined visually in % infection of the entire leaf area.
The visually determined values for the percentage of infected leaf area were initially converted into a mean value and then converted into efficacies in % of the untreated control. An efficacy of 0 means the same degree of infection as in the untreated control, an efficacy of 100 means 0% infection. The expected efficacies for active compound combinations were determined using Colby's formula (Colby, S. R. “Calculating synergistic and antagonistic responses of herbicide Combinations”, Weeds, 15, pp. 20-22, 1967) and compared to the observed efficacies.

[2] = Conc. 1 mg/ml, efficacy in % of untreated control

SMILES: Fc1ccc(C2(Cn3cncn3)OC2c2ccccc2Cl)cc1 (stereo not shown) [Epoxiconazole, epoxiconazole]
- Observed activity (Puccinia recondita; Conc. 0.25 mg/ml, efficacy in % of untreated control): 11%
- Observed activity ([1]; Conc. 0.25 mg/ml): 0%
- Observed activity [1, 2]: 33%

SMILES: CCC(=O)C1=C([O-])CC(C(=O)[O-])CC1=O.[Ca+2] (stereo not shown) [Prohexadione-Ca, prohexadione-calcium]
- Observed activity (Puccinia recondita; Conc. 0.06 mg/ml): 0%
- Observed activity (Puccinia recondita; Conc. 1 mg/ml): 0%
- Observed activity ([1]; Conc. 0.25 mg/ml): 0%
- Observed activity [1, 2]: 0%
